For four compounds, MIC results are on record in DBAASP.

Values after ≈ are worked out from the molar mass of the structure shown.

Test systems include Escherichia coli 780; Escherichia coli 804; Staphylococcus aureus 75; Escherichia coli BW25113.
Holding throughout (assay): ≥ marks a high value that may be exact or a test limit, other limits are often not marked, values filed in µg/mL are converted to µM
The subject of experiment [1] is Acinetobacter baumannii 97830.
Experiment [2] deals with Acinetobacter baumannii 9931.
The test system of experiment [3] is Acinetobacter baumannii ATCC 19606.
Experiment [4] has as its system Bacillus subtilis ATCC 23857.
For experiment [5], the system named is Klebsiella pneumoniae ATCC 700603.
Experiment [6] concerns Pseudomonas aeruginosa 50.
In experiment [7] the test system is Pseudomonas aeruginosa 73.
The subject of experiment [8] is Pseudomonas aeruginosa ATCC 27853.
The subject of experiment [9] is Pseudomonas aeruginosa ATCC 9027.
For experiment [10], the system named is Staphylococcus aureus 113.
Experiment [11] deals with Staphylococcus aureus ATCC 29213.
Experiment [12] concerns Staphylococcus epidermidis ATCC 12228.
In experiment [13] the test system is Escherichia coli DH5alpha.
Experiment [14] has as its system Zymomonas mobilis ATCC 10988.
Experiment [15] relates to Escherichia coli ATCC 25922.
The subject of experiment [16] is Escherichia coli BW25113 ΔsbmA.
Experiment [17] relates to Staphylococcus aureus ATCC 25923.
Experiment [18] deals with Acinetobacter baumannii ATCC 19606(CipR).
Experiment [19] concerns Acinetobacter baumannii ATCC 19606(GenR).
For experiment [20], the system named is Acinetobacter baumannii ATCC 19606(ImiR).
Experiment [21] concerns Acinetobacter baumannii ATCC 19606(RifR).
Experiment [22] has as its system Escherichia coli ATCC 25922(CipR).
Experiment [23] concerns Escherichia coli ATCC 25922(GenR).
Experiment [24] relates to Escherichia coli ATCC 25922(ImiR).
Experiment [25] deals with Escherichia coli ATCC 25922(RifR).
The subject of experiment [26] is Klebsiella pneumoniae ATCC 700603(CipR).
The test system of experiment [27] is Klebsiella pneumoniae ATCC 700603(GenR).
Experiment [28] concerns Klebsiella pneumoniae ATCC 700603(ImiR).
The test system of experiment [29] is Klebsiella pneumoniae ATCC 700603(RifR).
In experiment [30] the test system is Pseudomonas aeruginosa ATCC 27853(CipR).
In experiment [31] the test system is Pseudomonas aeruginosa ATCC 27853(GenR).
Experiment [32] has as its system Pseudomonas aeruginosa ATCC 27853(ImiR).
Experiment [33] concerns Pseudomonas aeruginosa ATCC 27853(RifR).

As a reminder, the MIC is the least concentration at which growth counts as inhibited. The low end stands for greater potency, the high end for weaker potency. For the compound `C[C@H](N)C(=O)N[C@@H](CCCN=C(N)N)C(=O)N[C@@H](CCCN=C(N)N)C(=O)N[C@@H](Cc1c[nH]c2ccccc12)C(=O)N[C@@H](Cc1c[nH]c2ccccc12)C(=O)N[C@@H](Cc1c[nH]c2ccccc12)C(=O)N[C@@H](CCCN=C(N)N)C(=O)N[C@@H](CCCN=C(N)N)C(=O)N[C@@H](C)C(N)=O` [ARRWWWRRA], the MIC is ≥ 128 µM in [1]; ≥ 64 µM in experiment [2]; 128 µM (≈ 172 µg/mL) in [3]; 8 µM (≈ 10.7 µg/mL) in experiment [4]; ≥ 32 µM in the experiment on Escherichia coli 780; ≥ 64 µM against Escherichia coli 804. For the same compound, the MIC in [5] is > 128 µM; in experiment [6], ≥ 128 µM; in experiment [7], ≥ 128 µM; in [8] it was 128 µM (≈ 172 µg/mL); in experiment [9], 128 µM (≈ 172 µg/mL); in [10], 16 µM (≈ 21.5 µg/mL). Further, the MIC against Staphylococcus aureus 75 came to 16 µM (≈ 21.5 µg/mL); in experiment [11] it was 32 µM (≈ 43 µg/mL); in experiment [12], 8 µM (≈ 10.7 µg/mL).

`CC[C@H](C)[C@H](NC(=O)[C@H](CCCN=C(N)N)NC(=O)[C@H](CCC(N)=O)NC(=O)[C@@H](NC(=O)[C@@H](NC(=O)[C@H](CCCN=C(N)N)NC(=O)[C@H](CCCCN)NC(=O)[C@@H](N)CC(C)C)[C@@H](C)CC)C(C)C)C(=O)N[C@@H](CCCCN)C(=O)N[C@@H](CC(=O)O)C(=O)N[C@@H](Cc1ccccc1)C(=O)N[C@@H](CC(C)C)C(=O)N[C@@H](CCCN=C(N)N)C(N)=O` [LKRIVQRIKDFLR]: the MIC in experiment [13] and in experiment [14] was ≥ 119 µM in each case.

Take `CC[C@H](C)[C@H](NC(=O)[C@H](CCCN=C(N)N)NC(=O)[C@@H](N)Cc1c[nH]c2ccccc12)C(=O)N[C@@H](CCCN=C(N)N)C(=O)N1CCC[C@H]1C(=O)N[C@@H](CCCN=C(N)N)C(=O)N1CCC[C@H]1C(=O)N1CCC[C@H]1C(=O)N[C@@H](CCCN=C(N)N)C(=O)N[C@@H](CC(C)C)C(=O)N1CCC[C@H]1C(=O)N[C@@H](CCCN=C(N)N)C(=O)N1CCC[C@H]1C(=O)N[C@@H](CCCN=C(N)N)C(=O)N1CCC[C@H]1C(=O)N[C@@H](CCCN=C(N)N)C(=O)O` [WRIRPRPPRLPRPRPR]: the minimum inhibitory concentration (MIC) in experiment [3] is 32 µM (≈ 67.4 µg/mL); in experiment [15], 1 µM (≈ 2.11 µg/mL); in experiment [16], 12 µM (≈ 25.3 µg/mL); in the experiment on Escherichia coli BW25113 it was 1 µM (≈ 2.11 µg/mL); in experiment [5], 16 µM (≈ 33.7 µg/mL); in experiment [8], > 64 µM. Also, in experiment [17], the MIC is > 64 µM.

`NCCCC[C@H](NC(=O)[C@H](CCCN=C(N)N)NC(=O)[C@H](Cc1c[nH]c2ccccc12)NC(=O)[C@H](CCCCN)NC(=O)[C@H](CCCN=C(N)N)NC(=O)[C@H](Cc1c[nH]c2ccccc12)NC(=O)[C@H](CCCCN)NC(=O)[C@H](CCCN=C(N)N)NC(=O)[C@H](Cc1c[nH]c2ccccc12)NC(=O)[C@H](CCCCN)NC(=O)[C@H](CCCN=C(N)N)NC(=O)[C@@H](N)Cc1c[nH]c2ccccc12)C(N)=O` [WRKWRKWRKWRK]: the MIC in experiment [2] amounted to 8 µM (≈ 15.2 µg/mL); in experiment [18] it was 16 µM (≈ 30.4 µg/mL); in experiment [19] it was 16 µM (≈ 30.4 µg/mL); in [20], 16 µM (≈ 30.4 µg/mL); in [21], 8 µM (≈ 15.2 µg/mL); in experiment [3], 8 µM (≈ 15.2 µg/mL). Also, the MIC in experiment [4] worked out at 2 µM (≈ 3.8 µg/mL); against Escherichia coli 780 it was 8 µM (≈ 15.2 µg/mL); in the experiment with Escherichia coli 804 it was 16 µM (≈ 30.4 µg/mL); in experiment [22], 8 µM (≈ 15.2 µg/mL); in [23], 8 µM (≈ 15.2 µg/mL); in experiment [24], 16 µM (≈ 30.4 µg/mL). Further, the MIC in experiment [25] was 16 µM (≈ 30.4 µg/mL); in experiment [26], ≥ 32 µM; in [27] it was ≥ 32 µM; in [28] it was 16 µM (≈ 30.4 µg/mL); in experiment [29], 16 µM (≈ 30.4 µg/mL); in [5], 16 µM (≈ 30.4 µg/mL). The minimum inhibitory concentration (MIC) in experiment [6] is 4 µM (≈ 7.6 µg/mL); in experiment [30], 4 µM (≈ 7.6 µg/mL); in [31] it was ≥ 32 µM; in experiment [32], 8 µM (≈ 15.2 µg/mL); in experiment [33], 4 µM (≈ 7.6 µg/mL); in experiment [8] it was 4 µM (≈ 7.6 µg/mL). Moreover, the minimal inhibitory concentration (MIC) in experiment [9] was 4 µM (≈ 7.6 µg/mL); in [10], 2 µM (≈ 3.8 µg/mL); with Staphylococcus aureus 75, 4 µM (≈ 7.6 µg/mL); in [11] it was 4 µM (≈ 7.6 µg/mL); in experiment [12], 4 µM (≈ 7.6 µg/mL).
